Experimental findings from US6815546B2, “Analogues of camptothecin, their use as medicaments and the pharmaceutical compositions containing them” (Societe de Recherches et d'Applications Scientifiques …, priority 1995, dated 2004) are described below.

The target of this assay is T1, DNA topoisomerase 1 of purified calf thymus (Bos taurus, UniProt F1MN93).
T1 construct: DNA topoisomerase 1 of purified calf thymus (Gibco-BRL, Paisley, United Kingdom); purchased Gibco-BRL, Paisley, United Kingdom; host or cells: calf thymus tissue
T1 sequence (F1MN93 1-767): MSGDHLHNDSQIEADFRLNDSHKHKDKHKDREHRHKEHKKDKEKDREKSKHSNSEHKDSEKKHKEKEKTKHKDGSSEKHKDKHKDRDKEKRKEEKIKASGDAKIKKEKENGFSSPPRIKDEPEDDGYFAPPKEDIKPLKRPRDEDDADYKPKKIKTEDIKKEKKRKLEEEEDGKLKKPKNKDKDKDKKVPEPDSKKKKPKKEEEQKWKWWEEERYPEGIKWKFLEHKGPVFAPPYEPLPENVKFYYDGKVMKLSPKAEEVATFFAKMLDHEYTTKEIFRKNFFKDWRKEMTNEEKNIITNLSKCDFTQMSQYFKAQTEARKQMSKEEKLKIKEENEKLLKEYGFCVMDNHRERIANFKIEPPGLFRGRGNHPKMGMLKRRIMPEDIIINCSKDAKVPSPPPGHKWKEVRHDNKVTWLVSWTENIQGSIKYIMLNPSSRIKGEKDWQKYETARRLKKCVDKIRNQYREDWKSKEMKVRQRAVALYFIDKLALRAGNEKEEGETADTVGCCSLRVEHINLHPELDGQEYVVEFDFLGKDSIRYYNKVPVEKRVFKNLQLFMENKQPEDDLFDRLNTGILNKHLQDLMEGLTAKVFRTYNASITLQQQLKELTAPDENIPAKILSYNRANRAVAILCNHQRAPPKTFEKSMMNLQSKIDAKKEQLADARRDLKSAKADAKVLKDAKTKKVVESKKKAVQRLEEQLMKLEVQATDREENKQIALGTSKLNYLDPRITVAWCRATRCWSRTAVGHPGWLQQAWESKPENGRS
Kind of assay: Relaxation activity test of DNA induced by topoisomerase 1. The format is biochemical. To be noted: supercoiled pUC19, 15 minutes at 37° C. As for the experimental part:
1. Relaxation Activity Test of DNA Induced by Topoisomerase 1
All the reactions are carried out in a 20 μl reaction buffer constituted by 50 mM of Tris-HCl (pH 7.5), 50 mM of KCl, 0.5 mM of dithiothreitol, 10 mM of MgCl2, 0.1 mM of ethyldiamine tetraacetic acid (EDTA), 30 μg/ml of bovine serum albumin and 300 ng of supercoiled pUC19 (Pharmacia Biotech, Orsay, France) with or without the compounds to be tested at defined concentrations. All the compounds to be tested are initially dissolved in dimethylsulphoxide (DMSO) at 50 mM, the other dilutions being carried out with distilled water. […] The reaction is initiated by the addition of a unit of DNA topoisomerase 1 of purified calf thymus (Gibco-BRL, Paisley, United Kingdom) and is carried out for 15 minutes at 37° C. The reactions are stopped by the addition of 3 μl of a mixture containing 1% dodecyl sodium sulphate at 1%, 20 mM of EDTA and 500 μg/ml of K proteinase (Boehringer Mannheim, Meylan, France). After an additional incubation period of 30 minutes at 37° C., 2 μl of a loading buffer containing 10 mM of Na2HPO4, 0.3% of bromophenol blue et 16% Ficoll are added to samples which are subjected to electrophoresis in agarose gels at 1.2% at 1 V/cm for 20 hours in a buffer containing 36 mM of Tris-HCl at pH 7.8, 30 mM of Na2HPO4, 1 mM of EDTA and 2 μg/ml of chloroquine. The gels are stained with 2 μg/ml of ethidium bromide, photographed under UV light at 312 nm with a camera and the fluorescent intensity is measured with a bioProfil camera (Vilber Lournat, Lyon, France) with a view to determining the percentage of relaxed DNA. Each experiment is carried out at least three times in duplicate.
In each experiment, the supercoiled plasmid DNA is incubated alone or with topoisomerase 1. The reaction is completed within 15 minutes. For each compound to be tested or control, the supercoiled plasmid DNA is incubated in the presence of 500 μM of compound to be tested with enzyme or without enzyme plus the compound to be tested, at concentrations of 10 μM, 100 μM, 200 μM and 500 μM.

Regarding `CCc1c2c(nc3ccccc13)-c1cc(C(O)(CC)CC(=O)O)c(CO)c(=O)n1C2` (centres unmarked) [Example 10, 3-[12-ethyl-8-(hydroxymethyl)-9-oxo-9,11-dihydroindolizino[1,2-b]quinolin-7-yl]-3-hydroxypentanoic acid], the “PERCENTAGE OF RELAXED DNA” value by setting is: (10 μM compound) 96.9%; (100 μM compound) 45.4%; (200 μM compound) 26.2%; (500 μM compound) 8.7%.

Take `CCC1(O)CC(=O)OCc2c1cc1n(c2=O)Cc2cc3ccccc3nc2-1` (centres unmarked) [Example 3, 5-ethyl-5-hydroxy-1,4,5,13-tetrahydro-3H,15H-oxepino [3′,4′:6,7]indolizino[1,2-b]quinoline-3,15-dione]: the “PERCENTAGE OF RELAXED DNA” value runs as follows: (10 μM compound) 79.9%; (100 μM compound) 59.9%; (200 μM compound) 55.0%; (500 μM compound) 45.7%.

As for `CCC(O)(CC(=O)O)c1cc2n(c(=O)c1CO)Cc1cc3ccccc3nc1-2` (centres unmarked) [Example 4, 3-hydroxy-3-[8-(hydroxymethyl)-9-oxo-9,11-dihydroindolizino [1,2-b]quinolin-7-yl]pentanoic acid], the “PERCENTAGE OF RELAXED DNA” value runs as follows: (10 μM compound) 99.1%; (100 μM compound) 82.2%; (200 μM compound) 67.6%; (500 μM compound) 32.9%.

Regarding `CCc1c2c(nc3ccccc13)-c1cc3c(c(=O)n1C2)COC(=O)CC3(O)CC` (centres unmarked) [Example 9, 5,12-diethyl-5-hydroxy-1,4,5,13-tetrahydro-3H,15H-oxepino[3′,4′:6,7]indolizino[1,2-b]quinoline-3,15-dione], the “PERCENTAGE OF RELAXED DNA” value is recorded as 77.1% (10 μM compound), 33.9% (100 μM compound), 29.7% (200 μM compound) and 20.4% (500 μM compound).

Take `CCC1(O)CC(=O)OCc2c1cc1n(c2=O)Cc2cc3cc4c(cc3nc2-1)OCCO4` (centres unmarked) [Example 11, 8-ethyl-8-hydroxy-2,3,8,9,12,15-hexahydro-10H,13H-[1,4]dioxino [2,3-g]oxepino[3′,4′:6,7]indolizino[1,2-b]quinoline-10,13-dione]: the “PERCENTAGE OF RELAXED DNA” value runs as follows: (10 μM compound) 65.0%; (100 μM compound) 50.3%; (200 μM compound) 39.8%; (500 μM compound) 31.0%.
